Ends that are not written are not given here.
How the values were obtained:
rat ASIC2a = target: T1, rat ASIC2a (Rattus norvegicus, UniProt Q62962); test: Whole-cell current activation, rat ASIC2a in X. laevis oocytes; assay type: cell-based
T1 construct: expressed in transfected cells; host or cells: Xenopus laevis oocytes (injected)
T1 sequence (Q62962 1-512): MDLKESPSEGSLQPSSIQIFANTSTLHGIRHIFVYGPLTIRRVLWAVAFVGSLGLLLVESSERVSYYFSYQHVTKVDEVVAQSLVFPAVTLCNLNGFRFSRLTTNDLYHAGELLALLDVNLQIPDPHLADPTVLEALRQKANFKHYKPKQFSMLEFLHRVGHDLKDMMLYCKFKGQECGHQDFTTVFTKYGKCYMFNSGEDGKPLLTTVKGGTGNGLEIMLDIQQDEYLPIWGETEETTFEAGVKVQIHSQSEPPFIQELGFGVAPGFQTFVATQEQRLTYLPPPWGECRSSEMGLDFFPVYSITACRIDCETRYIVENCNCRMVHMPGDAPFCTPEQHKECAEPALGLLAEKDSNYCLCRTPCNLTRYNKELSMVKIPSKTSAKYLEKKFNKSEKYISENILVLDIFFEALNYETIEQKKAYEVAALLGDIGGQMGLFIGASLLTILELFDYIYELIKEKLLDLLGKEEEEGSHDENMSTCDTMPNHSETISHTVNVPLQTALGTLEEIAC
Experimental: (§1) Oocytes expressed rASIC1a, rASIC1b, rASIC2a, and rASIC3 homomeric channels were prepared as described. Injected oocytes were kept for two–three days at 19 °C and then for up to seven days at 15 °C in ND-96 medium supplemented with gentamycin (50 μg·mL^−1) and containing (in mM): 96 NaCl, 2 KCl, 1.8 CaCl2, 1 MgCl2, and 10 HEPES titrated to pH 7.4 with NaOH. Electrophysiological recordings were performed using the GeneClamp500 amplifier (Axon Instruments, Inverurie, UK) at a holding potential of -50 mV. The data were filtered at 20 Hz and digitized at 100 Hz using the L780 AD converter (L-Card, Moscow, Russia). Microelectrodes were filled with 3 M KCl. The external bath solution was ND-96 with pH adjusted to 7.4/7.8 (10 mM HEPES) /8.5 (10 mM Tris). Nocistatin containing solutions were freshly prepared and buffered each experimental day in ND-96 bath solution (pH 7.4/7.8/8.5). Proton-activated currents through ASIC channels were elicited by application of ND-96, in which 10 mM of HEPES was substituted with 10 mM MES at pH 5.5/ 10 mM acetic acid at pH 4.5. The whole-cell recording was performed if a response to the control pH stimulus was stable in at least two replicates. Nocistatin-activated currents were elicited by application of nocistatin containing solutions with various concentrations of the peptide.
Extracellular solutions were applied using a computer-controlled valve system with a flow rate of 1 mL/min. The oocyte chamber volume was 80 µL. The validity of the application system for studying ASIC channels expressed in oocytes was confirmed in experiments by application of a Cl-free solution (containing (in mM): 130 NMDG, 1 MgGluc2, 2 KGluc, 5 HEPES) (pH 7.4). […]
All data are presented as mean ± SEM. The significance of normalized data differences was determined with a non-parametric Kruskal-Wallis ANOVA test with the significance level * p < 0.05 and ** p < 0.01; ns, non-significant.

homomeric ASICs = test: Whole-cell current, homomeric ASICs in oocytes (all isoforms together); assay type: cell-based, rat
Experimental: as §1
Extracellular solutions were applied using a computer-controlled valve system with a flow rate of 1 mL/min. The oocyte chamber volume was 80 µL. The validity of the application system for studying ASIC channels expressed in oocytes was confirmed in experiments by application of a Cl-free solution (containing (in mM): 130 NMDG, 1 MgGluc2, 2 KGluc, 5 HEPES) (pH 7.4). Fast application of proton/peptide-activating solution was performed at a flow rate of 1 mL/sec (the change of the bath solution occurred within 100 ms), followed by PC controlled flow stopping (from 5 to 15 s).

“MPRVRSVVQARDAEPEADAEPVADEADEVEQKQLQ [rNS]” was tested, and the “tmax less than for acidification by” value (rat ASIC2a; 1 mM rNS vs acidification, faster) was ~ 37%, the “Maximal amplitude of peptide activation versus response to standard pH drop” value (rat ASIC2a; 1 mM rNS vs pH drop 7.4 to 5.5) was “eight times higher” and the “τdes (desensitization time constant)” value (rat ASIC2a; 1 mM rNS, conditioning pH 7.4, mean ± S.E. from 4–7 measurements) was 2.22 ± 0.16 s. The “Response to a pH drop after washing out the peptide” value (homomeric ASICs; after washout) was “completely restored after washing out the peptide”, the “Response to rapid acidification after activation by the peptide” value (homomeric ASICs; pH drop after 1 mM rNS) was “did not respond further to rapid acidification after activation by the peptide” and the “Effect of application at resting pH 7.4” value (homomeric ASICs; resting pH 7.4, 1 mM rNS) was “causes rapidly activating inward currents in homomeric ASICs”.

From PMC6769468, “Endogenous Neuropeptide Nocistatin Is a Direct Agonist of Acid-Sensing Ion Channels (ASIC1, ASIC2 and ASIC3)” (Biomolecules, 2019)
